# In patent US12168662B1, “Pyrido[4′,3′:4,5]pyrrolo[2,3-c][2,7]naphthyridines compounds as CK2 inhibitors” (KING FAISAL UNIVERSITY, priority 2023, dated 2024):
# Columns and labels:
# MIAPaCa-2 (pancreas) = test: In vitro cytotoxic activity assay (MTT); type: cell-based; settings: Homo sapiens, MIA PaCa-2; MIAPaCa-2 cells, exposed for 96 hours, 50% inhibition of cell proliferation; read-out: Cytotoxicity activity IC50, MIAPaCa-2 (pancreas)
# Experimental: (§1) Compounds 1-16 were screened for their in vitro cytotoxic activity utilizing a 3-(4,5-dimethyl-thiazol-2-yl)-2,5-diphenyltetrazolium bromide (MTT) assay against selected cancer human cell lines consisting of PC3 (prostate), HCT116 (colon), A375 (melanoma), H1299 (lung), MIAPaCa-2 (pancreas), HL60 (leukemia), MCF7 (breast), MDA-MB-231 (breast) (T. Mosmann, J. Immunol. Meth., 1983, 65, 55-63). The cells were cultured at 37° C. in RMPI1640 medium supplemented with 10% fetal bovine serum, 50 IU/mL penicillin, and 50 μg/mL streptomycin in a 5% CO2 incubator. All cells were sub-cultured 3 times/week by trypsinisation. Viable cells were seeded and allowed to adhere for 12 hours before a test drug was added in 96-well plates at an initial density of 1.0×10^5 cells/mL. Tumor cell lines were separately exposed to various concentrations of the tested compounds followed by incubation at a temperature of 37° C. during 96 hours inside a medium of fresh RMPI 1640. Cells were subsequently incubated at 37° C. using MTT at 0.5 mg/mL during 4 hours. After removal of supernatant, formazan crystals were dissolved in isopropanol and the optical density was measured at 570 nm. CX-4945 was used as a positive control.
# H1299 (lung) = test: In vitro cytotoxic activity assay (MTT); type: cell-based; settings: Homo sapiens, NCI-H1299; H1299 cells, exposed for 96 hours, 50% inhibition of cell proliferation; read-out: Cytotoxicity activity IC50, H1299 (lung)
# Experimental: as §1
# HCT116 (colon) = test: In vitro cytotoxic activity assay (MTT); type: cell-based; settings: Homo sapiens, HCT-116; HCT116 cells, exposed for 96 hours, 50% inhibition of cell proliferation; read-out: Cytotoxicity activity IC50, HCT116 (colon)
# Experimental: as §1
# PC3 (prostate) = test: In vitro cytotoxic activity assay (MTT); type: cell-based; settings: Homo sapiens, PC-3; PC3 cells, exposed for 96 hours, 50% inhibition of cell proliferation; read-out: Cytotoxicity activity IC50, PC3 (prostate)
# Experimental: as §1
# MCF7 (breast) = test: In vitro cytotoxic activity assay (MTT); type: cell-based; settings: Homo sapiens; MCF7 cells, exposed for 96 hours, 50% inhibition of cell proliferation; read-out: Cytotoxicity activity IC50, MCF7 (breast)
# Experimental: as §1
# A375 (melanoma) = test: In vitro cytotoxic activity assay (MTT); type: cell-based; settings: Homo sapiens, A-375; A375 cells, exposed for 96 hours, 50% inhibition of cell proliferation; read-out: Cytotoxicity activity IC50, A375 (melanoma)
# Experimental: as §1
# HL60 (leukemia) = test: In vitro cytotoxic activity assay (MTT); type: cell-based; settings: Homo sapiens, HL-60; HL60 cells, exposed for 96 hours, 50% inhibition of cell proliferation; read-out: Cytotoxicity activity IC50, HL60 (leukemia)
# Experimental: as §1
# MDA-MB-231 (breast) = test: In vitro cytotoxic activity assay (MTT); type: cell-based; settings: Homo sapiens; MDA-MB-231 cells, exposed for 96 hours, 50% inhibition of cell proliferation; read-out: Cytotoxicity activity IC50, MDA-MB-231 (breast)
# Experimental: as §1
# [1] = target: T1, recombinant human CK2 (RRββ-holoenzyme) (Homo sapiens, UniProt P68400); test: CK2 Kinase Assay (radiometric, [γ-33P] ATP); type: biochemical; settings: final ATP concentration 15 μM, 10 min at 30° C., eight concentrations; read-out: protein kinase CK2 activity IC50
# T1 construct: purchased Millipore
# T1 sequence (P68400 whole entry): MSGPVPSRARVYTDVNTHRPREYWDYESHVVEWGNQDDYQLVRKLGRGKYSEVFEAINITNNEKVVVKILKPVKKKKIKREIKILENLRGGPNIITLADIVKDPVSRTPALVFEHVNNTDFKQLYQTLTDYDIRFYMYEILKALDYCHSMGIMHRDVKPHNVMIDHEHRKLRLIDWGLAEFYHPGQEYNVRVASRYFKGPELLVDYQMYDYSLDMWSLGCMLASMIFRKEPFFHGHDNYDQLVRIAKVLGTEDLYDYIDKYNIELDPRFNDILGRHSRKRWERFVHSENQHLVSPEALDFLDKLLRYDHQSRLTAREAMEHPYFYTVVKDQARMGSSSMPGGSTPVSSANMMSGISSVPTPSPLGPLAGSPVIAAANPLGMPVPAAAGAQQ
# T1 sequence (P67870 whole entry partner): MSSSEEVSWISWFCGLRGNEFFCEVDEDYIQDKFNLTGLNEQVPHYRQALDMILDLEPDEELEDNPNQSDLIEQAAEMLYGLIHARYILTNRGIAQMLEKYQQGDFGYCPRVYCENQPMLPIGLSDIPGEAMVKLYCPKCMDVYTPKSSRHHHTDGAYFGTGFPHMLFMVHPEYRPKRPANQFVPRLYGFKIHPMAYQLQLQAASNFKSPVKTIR
# Experimental: CK2 Kinase Assay was conducted using the protocol as described in Pierre F. et al; J. Med. Chem. 2011, 54, 635-654. The tested compounds in aqueous solution were added at a volume of 10 μL to a reaction mixture comprising 10 μL of assay dilution buffer (ADB; 20 mM MOPS, pH 7.2, 25 mM β-glycerol phosphate, 5 mM EGTA, 1 mM sodium orthovanadate, and 1 mM dithiothreitol), 10 μL of substrate peptide (RRRDDDSDDD, dissolved in ADB at a concentration of 1 mM), 10 μL of recombinant human CK2 (RRββ-holoenzyme, 25 ng dissolved in ADB; Millipore). Reactions were initiated by the addition of 10 μL of ATP solution (90% 75 mMMgC2, 75 μM ATP (final ATP concentration: 15 μM) dissolved in ADB; 10% [γ-33P] ATP (stock 1 mCi/100 μL; 3000 Ci/mmol (Perkin-Elmer) and maintained for 10 min at 30° C. The reactions were quenched with 100 μL of 0.75% phosphoric acid and then transferred to and filtered through a phosphor cellulose filter plate (Millipore). After washing each well five times with 0.75% phosphoric acid, the plate was dried under vacuum for 5 min and, following the addition of 15 μL of scintillation fluid to each well, the residual radioactivity was measured using a Wallac luminescence counter. The IC50 values were derived from eight concentrations of test inhibitors.
smiles,measurement,setting,value
"Clc1cccc(Nc2nc3[nH]c4cnccc4c3c3ccncc23)c1 [Compound 1, N-(3-chlorophenyl)-7H-pyrido[4′,3′:4,5]pyrrolo[2,3-c][2,7]naphthyridin-5-amine]",IC50,MIAPaCa-2 (pancreas),2400 nM
same,IC50,H1299 (lung),1800 nM
same,IC50,HCT116 (colon),1500 nM
same,IC50,PC3 (prostate),1300 nM
same,IC50,MCF7 (breast),5200 nM
same,IC50,A375 (melanoma),4700 nM
same,IC50,HL60 (leukemia),3300 nM
same,IC50,MDA-MB-231 (breast),4400 nM
same,IC50,[1],334 nM
